molecular target: T1, human CB2R (Homo sapiens, UniProt P34972); test: CB2R mediated modulation of cAMP synthesis; type: cell-based; conditions: CHO cells expressing human CB2R; concentration at which 50% of the forskolin-stimulated cAMP synthesis was inhibited; 100% defined by 1 uM CP55940; read-out: CB2 EC50
T1 construct: host or cells: CHO cells
Protocol: B. CB2R Mediated Modulation of Camp Synthesis:
Compounds of the invention were evaluated for their CB2 agonist or inverse agonistic activity in accordance with the following experimental method.
CHO cells expressing human CB2R (Euroscreen) were plated at a density of 5000 cells per well in 384 well plates and incubated overnight at 37° C. After removing the media, the cells were treated with test compounds diluted in stimulation buffer containing 1 mM IBMX, 0.25% BSA and 10 uM Forskolin. The assay was incubated for 30 minutes at 37° C. Cells were lysed and the cAMP concentration was measured using DiscoverX-XS cAMP kit, following the manufacturer's protocol. In this setting, agonists will decrease forskolin induced production of cAMP while inverse agonists will further increase forskolin induced production of cAMP. EC50 of agonists were calculated as follows. The maximal amount of cAMP produced by forskolin compared to the level of cAMP inhibited by 1 uM CP55940 is defined as 100%. The EC50 value of each test compound was determined as the concentration at which 50% of the forskolin-stimulated cAMP synthesis was inhibited. Data was analyzed using a four-parameter logistic model. (Model 205 of XLfit 4.0).

T1 sequence (P34972 whole entry): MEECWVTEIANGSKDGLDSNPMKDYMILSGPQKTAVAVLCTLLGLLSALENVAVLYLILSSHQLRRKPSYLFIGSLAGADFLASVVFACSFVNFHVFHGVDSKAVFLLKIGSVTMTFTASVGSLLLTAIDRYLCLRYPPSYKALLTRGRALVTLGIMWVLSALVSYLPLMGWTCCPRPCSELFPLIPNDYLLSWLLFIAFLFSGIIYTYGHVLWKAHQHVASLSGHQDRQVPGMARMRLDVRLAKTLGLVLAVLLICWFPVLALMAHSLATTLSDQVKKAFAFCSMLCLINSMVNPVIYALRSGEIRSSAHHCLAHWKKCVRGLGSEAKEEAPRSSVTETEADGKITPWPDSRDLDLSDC

SMILES	EC50 [nM]
Cn1nc(C(C)(C)C)cc1-c1nnc(C(C)(C)S(=O)(=O)c2ccc(F)cc2)[nH]1 [Example 44, 3-(5-tert-butyl-2-methyl-2H-pyrazol-3-yl)-5-[1-(4-fluoro-benzenesulfonyl)-1-methyl-ethyl]-4H-[1,2,4]triazole]	2
CC(C)(C)c1cc(-c2nnc(C(C)(C)S(=O)(=O)c3ccc(F)cc3)[nH]2)on1 [Example 45, 3-(3-tert-butyl-isoxazol-5-yl)-5-[1-(4-fluoro-benzenesulfonyl)-1-methyl-ethyl]-4H-[1,2,4]triazole]	255
Cn1nc(C(C)(C)C)cc1-c1nnc(C(C)(C)S(=O)(=O)CC2CCOCC2)[nH]1 [Example 46, 3-(5-tert-butyl-2-methyl-2H-pyrazol-3-yl)-5-[1-methyl-1-(tetrahydro-pyran-4-ylmethanesulfonyl)-ethyl]-4H-[1,2,4]triazole]	414
Cn1nc(C(C)(C)C)cc1-c1nnc(C(C)(C)S(=O)(=O)Cc2ccc(F)cc2)[nH]1 [Example 48, 3-(5-tert-butyl-2-methyl-2H-pyrazol-3-yl)-5-[1-(4-fluoro-phenylmethanesulfonyl)-1-methyl-ethyl]-4H-[1,2,4]triazole]	129
CC(C)(C)c1cc(-c2nnc(C(C)(C)S(=O)(=O)Cc3ccc(F)cc3)[nH]2)on1 [Example 49, 3-(3-tert-Butyl-isoxazol-5-yl)-5-[1-(4-fluoro-phenylmethanesulfonyl)-1-methyl-ethyl]-4H-[1,2,4]triazole]	293
Cn1nc(C(C)(C)C)cc1-c1nnc(C(C)(C)S(=O)(=O)CC2CCC(O)CC2)[nH]1 (stereo not drawn) [Example 51, 4-{2-[5-(5-tert-butyl-2-methyl-2H-pyrazol-3-yl)-4H-[1,2,4]triazol-3-yl]-propane-2-sulfonylmethyl}-cyclohexanol]	459

— patent US20120015988A1, “Sulfone Compounds Which Modulate The CB2 Receptor” (BOEHRINGER INGELHEIM INTERNATIONAL GMBH, priority 2008, published 2012)
